# Experimental data from EP0525768A1, “Tetralones with pharmacological activity” (J. URIACH & CIA. S.A., priority 1991, dated 1993).
# Legend:
# [1] = test system: portal vein isolated from rat; experiment: Test 1: Inhibition of the contraction induced by noradrenaline in portal vein isolated from rat; settings: 0.5 h
# Method: Test 1: Inhibition of the contraction induced by noradrenaline in portal vein isolated from rat.
# Portal vein was extracted from adult male rats (between 200 and 250 g of body weight), which had been stunned by a blow in the head. Portal vein was installed into an isolated organ bath (Letica) containing a physiological saline solution (Hamilton et al., Br. J. Pharmacol., 1986, 88, 103-111) at 37 C and a gas bubbler (5% C02 and 95% 02). Contractions were induced by noradrenaline (3µM) and were reverted after thoroughly washing with physiological saline solution. Portal vein contraction was measured with an isometric force transducer and with an initial tension of 1 g. After two contractions with noradrenaline, performed in order to measure the tissue's basal response, the tested compounds were incubated for 30 minutes and a new contraction was induced.
# [2] = test system: Spontaneously hypertense rats; experiment: Test 2: Lowering of the arterial pressure in conscious hypertense rats; assay type: in vivo, rat; settings: caudal artery, 3 animals, value ± SEM
# Method: Test 2: Lowering of the arterial pressure in conscious hypertense rats.
# Spontaneously hypertense rats (between 200 and 250 g of body weight) of more than 8 weeks of age have been used. Diastolic and systolic arterial pressure of the rat was measured at the caudal artery using a special sphygnomanometer (Letica 5007 and 5007/4) attached to the animal's tail. To ensure rapid and reliable data, animals were placed in a heating plate at 37 °C, with the aim to produce a vasodilatation that ensured a better fixation of the rat tail to the transducer chamber. During the experiment, rats are conscious and fixed to a clamp. The tested products were administered orally. Arterial pressure was measured every 30 minutes and 10 minutes before the administration of the tested compound. The decrease of the arterial pressure was calculated for each compound at a dose of 1 mg/Kg, using 3 animals.
# [3] = test system: trachea isolated from guinea pig; experiment: Test 3: Direct relaxation of the trachea isolated from guinea pig; settings: 50% of the maximum relaxation, maximum = relaxation induced by isoproterenol at 1x10-6 M, cumulative addition
# Method: Test 3 -Direct relaxation of the trachea isolated from guinea pig.
# This test was performed according to the experimental model described by Emmerson, J. and Mackay, D. (J. Pharm. Pharmacol., 1979, 31, 798). Tracheas were extracted from male guinea pigs of 400 g of body weight, which had been stunned by a blow in the head. Then, tracheas were cut in zigzag and placed into an isolated organ bath (Letica) containing Krebs-Henseleit solution at 37 °C and were bubbled with carbogen (95% 02 and 5% C02). The relaxation of the trachea was measured using an isometric force transducer. The basal tension was 0.5 g.
SMILES,IC50 [1],Pressure Decrease (mm Hg) ± SEM (1 mg/Kg p.o.) [2],EC50 ([3]; Cavia porcellus),EC50 [3]
"Cn1nc(O[C@@H]2c3cc(C#N)ccc3C(=O)C(C)(C)[C@H]2O)ccc1=O (racemic) [Compound 2, Rac-Trans-2,2-dimethyl-3-hydroxy-4-(6-hydroxy-1-methyl-3-pyridazinyloxy)-1-oxo-1,2,3,4-tetrahydronaphthalen-6-carbonitrile]",2.8 µM,112.0 ± 1.0 mm Hg,0.31 µM,–
"CC1(C)C(=O)c2ccc(C#N)cc2[C@@H](Oc2ccc(O)nn2)[C@@H]1O (relative stereo) [Compound 1, Trans-2,2-dimethyl-3-hydroxy-4-(6-hydroxy-3-pyridazinyloxy)-1-oxo-1,2,3,4-tetrahydronaphthalen-6-carbonitrile]",8.8 µM,116.0 ± 5.9 mm Hg,5.2 µM,–
"C=CCn1nc(O[C@@H]2c3cc(C#N)ccc3C(=O)C(C)(C)[C@H]2O)ccc1=O (relative stereo) [Compound 5, Trans-2,2-dimethyl-3-hydroxy-4-[6-hydroxy-1-(2-propenyl)-3-pyridazinyloxy]-1-oxo-1,2,3,4-tetrahydronaphthalen-6-carbonitrile]",14 µM,20.5 ± 0.5 mm Hg,3.3 µM,–
"CC1(C)C(=O)c2ccc(Br)cc2[C@@H](Oc2ccc(O)nn2)[C@@H]1O (relative stereo) [Compound 8, Trans-6-bromo-2,2-dimethyl-3-hydroxy-4-(6-hydroxy-3-pyridazinyloxy)-1,2,3,4-tetrahydronaphthalen-1-one]",0.8 µM,46.5 ± 0.3 mm Hg,15.6 µM,–
"CC1(C)C(=O)c2ccc(C#N)cc2[C@@H](Oc2ccccn2)[C@@H]1O (relative stereo) [Compound 11, Trans-2,2-dimethyl-3-hydroxy-1-oxo-4-(2-pyridyloxy)-1,2,3,4-tetrahydronaphthalen-6-carbonitrile]",25 µM,43.0 ± 16.0 mm Hg,5.8 µM,–
"CC1(C)C(=O)c2ccc(C#N)cc2[C@@H](OC2=CC(=O)CC2)[C@@H]1O (relative stereo) [Compound 12, Trans-2,2-dimethyl-3-hydroxy-1-oxo-4-(3-oxo-1-cyclopent-1-enyloxy)-1,2,3,4-tetrahydronaphthalen-6-carbonitrile]",–,50.0 ± 16.0 mm Hg,–,–
"CC1(C)C(=O)c2ccc(C#N)cc2[C@@H](NC(=O)c2ccccn2)[C@@H]1O (relative stereo) [Compound 14, Trans-2,2-dimethyl-3-hydroxy-1-oxo-4-(2-pyridylcarbonylamino)-1,2,3,4-tetrahydronaphthalen-6-carbonitrile]",23 µM,71.7 ± 14.2 mm Hg,–,–
"CC1(C)C(=O)c2ccc(C#N)cc2[C@@H](NC(=O)c2cccnc2)[C@@H]1O (relative stereo) [Compound 15, Trans-2,2-dimethyl-3-hydroxy-1-oxo-4-(3-pyridylcarbonylamino)-1,2,3,4-tetrahydronaphthalen-6-carbonitrile]",2.8 µM,50.0 ± 9.8 mm Hg,4.9 µM,–
"CC1(C)C(=O)c2ccc(C#N)cc2[C@@H](NC(=O)c2ccoc2)[C@@H]1O (relative stereo) [Compound 17, Trans-2,2-dimethyl-4-(3-furylcarbonylamino)-3-hydroxy-1-oxo-1,2,3,4-tetrahydronaphthalen-6-carbonitrile]",–,58.0 ± 17.5 mm Hg,–,–
"CC1(C)C(=O)c2ccc(C#N)cc2[C@@H](NC(=O)c2ccccc2)[C@@H]1O (relative stereo) [Compound 18, Trans-2,2-dimethyl-3-hydroxy-1-oxo-4-(phenylcarbonylamino)-1,2,3,4-tetrahydronaphthalen-6-carbonitrile]",–,31.0 ± 11.9 mm Hg,2.1 µM,–
"COc1ccc(C(=O)N[C@@H]2c3cc(C#N)ccc3C(=O)C(C)(C)[C@H]2O)cc1 (relative stereo) [Compound 19, Trans-2,2-dimethyl-3-hydroxy-4-(4-methoxyphenylcarbonylamino)-1-oxo-1,2,3,4-tetrahydronaphthalen-6-carbonitrile]",12 µM,46.7 ± 8.6 mm Hg,0.3 µM,–
"Cn1nc(O[C@@H]2c3cc(C#N)ccc3C(=O)C(C)(C)[C@H]2O)ccc1=O (single isomer, unassigned) [Compound 3, (-)-Trans-2,2-dimethyl-3-hydroxy-4-(6-hydroxy-1-methyl-3-pyridazlnyloxy)-1-oxo-1,2,3,4-tetrahydronaphthalen-6-carbonitrile]",–,–,–,0.3 µM
"Cn1nc(O[C@@H]2c3cc(C#N)ccc3C(=O)C(C)(C)[C@H]2O)ccc1=O (single isomer, unassigned) [Compound 4, ( + ).Trans-2,2-d i methyl-3-hyd roxy-4-(6-hydroxy-1-methyl-3-pyridazinyloxy)-1-oxo-1,2,3,4-tetrahydronaphthalen-6-carbonitrile]",–,–,–,4.6 µM
"CC(=NC#N)NC1c2cc(C#N)ccc2C(=O)C(C)(C)C1O (stereo not drawn) [Compound 22, Trans-4-(N-cyanoacetimidoylamino)-2,2-dimethyl-3-hydroxy-1-oxo-1,2,3,4-tetrahydronaphthalen-6-carbonitrile]",–,–,1.8 µM,–
CC1(C)C(=O)c2ccc(C#N)cc2C(Nc2cc(Cl)ncn2)C1O (stereo not drawn) [Compound 23],3.7 µM,45.5 ± 11.5 mm Hg,4.4 µM,–
